Tests used:
NKL (IL-2 2.5 ng/mL) [1] = assay: percent inhibition of viability; higher = more inhibition; conditions: 72 h
KAI3 (IL-2 2.5 ng/mL) [2] = assay: as above; conditions: 72 h
IMC-1 (IL-2 20 ng/mL) [3] = assay: as above; conditions: 72 h
KHYG-1 (IL-2 2.5 ng/mL) [4] = assay: as above; conditions: 72 h
SNK-6 (IL-2 2.5 ng/mL) [5] = assay: as above; conditions: 72 h
DERL-7 (IL-2 2.5 ng/mL) [6] = assay: as above; conditions: 72 h
[7] = tested on: normal primary NK cells, pool 1 (3 donors) (IL-2 2.5 ng/mL); assay: as above; conditions: 72 h
[8] = tested on: normal primary NK cells, pool 2 (3 donors) (IL-2 2.5 ng/mL); assay: as above; conditions: 72 h
NK-YS (IL-2 2.5 ng/mL) [9] = assay: as above; conditions: 72 h
YT (IL-2 2.5 ng/mL) [10] = assay: as above; conditions: 72 h
[11] = tested on: normal primary NK cells, pool 1 (3 donors), resting (IL-2 0 ng/mL); assay: as above; conditions: 72 h
NK-92 (IL-2 2.5 ng/mL) [12] = assay: as above; conditions: 72 h
[13] = tested on: normal primary NK cells, pool 3 (3 donors) (IL-2 2.5 ng/mL); assay: as above; conditions: 72 h
[14] = tested on: normal NK cells expanded with K562-aAPC; assay: drug sensitivity score (DSS) (DSS units); higher = more sensitive; extreme values may be limits of the assay; conditions: 72 h; IL-2 2.5 ng/mL
Description: (§1)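 Drug sensitivity and resistance testing on K562-aAPC-expanded normal NK cells: 5 concentrations (10-fold steps over a 10,000-fold range), 72 h at 37 °C, viability by CellTiter-Glo normalised to DMSO and benzethonium chloride controls; DSS from the fitted curve.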

NKL (IL-2 2.5 ng/mL) [15] = assay: as above; conditions: 72 h
KAI3 (IL-2 2.5 ng/mL) [16] = assay: as above; conditions: 72 h
IMC-1 (IL-2 20 ng/mL) [17] = assay: as above; conditions: 72 h
KHYG-1 (IL-2 2.5 ng/mL) [18] = assay: as above; conditions: 72 h
SNK-6 (IL-2 2.5 ng/mL) [19] = assay: as above; conditions: 72 h
DERL-7 (IL-2 2.5 ng/mL) [20] = assay: as above; conditions: 72 h
[21] = tested on: normal primary NK cells, pool 1 (3 donors) (IL-2 2.5 ng/mL); assay: as above; conditions: 72 h
[22] = tested on: normal primary NK cells, pool 2 (3 donors) (IL-2 2.5 ng/mL); assay: as above; conditions: 72 h
NK-YS (IL-2 2.5 ng/mL) [23] = assay: as above; conditions: 72 h
YT (IL-2 2.5 ng/mL) [24] = assay: as above; conditions: 72 h
[25] = tested on: normal primary NK cells, pool 1 (3 donors), resting (IL-2 0 ng/mL); assay: as above; conditions: 72 h
NK-92 (IL-2 2.5 ng/mL) [26] = assay: as above; conditions: 72 h
[27] = tested on: normal primary NK cells, pool 3 (3 donors) (IL-2 2.5 ng/mL); assay: as above; conditions: 72 h
[28] = tested on: normal NK cells expanded with K562-aAPC; assay: percent inhibition of viability; higher = more inhibition; conditions: 72 h, IL-2 2.5 ng/mL
Description: as §1

Cc1ccc(NC(=O)c2ccc(CN3CCN(C)CC3)cc2)cc1Nc1nccc(-c2cccnc2)n1 [Imatinib] (max concentration tested 10000 nM)
percent inhibition of viability [%]
Conditions | 1 nM | 10 nM | 100 nM | 1000 nM | 10000 nM
DERL-7 (IL-2 2.5 ng/mL) [6] | 0.4 | -1.51 | 5.95 | 10.5 | 87.7
IMC-1 (IL-2 20 ng/mL) [3] | -6.61 | -9.38 | 0.61 | -5.6 | 101
KAI3 (IL-2 2.5 ng/mL) [2] | -2.16 | -7.49 | -4.01 | -0.85 | 74.1
KHYG-1 (IL-2 2.5 ng/mL) [4] | -2.34 | -9.57 | -7.02 | 0.18 | 101
NK-92 (IL-2 2.5 ng/mL) [12] | -3.36 | 0.75 | -2.9 | 7.24 | 63.5
NK-YS (IL-2 2.5 ng/mL) [9] | 0.66 | -5.53 | -1.76 | 2.33 | 70.3
NKL (IL-2 2.5 ng/mL) [1] | -12.3 | -12.6 | -18.4 | -6.32 | 71.4
SNK-6 (IL-2 2.5 ng/mL) [5] | -9.34 | -11 | -25.2 | -21.8 | 56.1
YT (IL-2 2.5 ng/mL) [10] | -0.33 | -5.36 | 0.48 | 5.22 | 96.3
[7] | -6.14 | -4.91 | 10.5 | 15.8 | 64.8
[8] | -11.8 | -13 | 3.62 | 7.57 | 37.4
[11] | -3.96 | -13.2 | 7.28 | 11.9 | 79
[13] | -7.45 | -5.71 | -0.28 | 8.35 | 31.7
[28] | -6.85 | -3.28 | -7.18 | 1.24 | 91.6

Conditions | drug sensitivity score
DERL-7 (IL-2 2.5 ng/mL) [20] | 6.62
IMC-1 (IL-2 20 ng/mL) [17] | 5.24
KAI3 (IL-2 2.5 ng/mL) [16] | 4.02
KHYG-1 (IL-2 2.5 ng/mL) [18] | 5.74
NK-92 (IL-2 2.5 ng/mL) [26] | 4.67
NK-YS (IL-2 2.5 ng/mL) [23] | 4.18
NKL (IL-2 2.5 ng/mL) [15] | 3.47
SNK-6 (IL-2 2.5 ng/mL) [19] | 2.14
YT (IL-2 2.5 ng/mL) [24] | 6.1
[14] | 5.26
[21] | 5.78
[22] | 3.04
[25] | 6.38
[27] | 2.67

COc1cc2nccc(Oc3ccc(NC(=O)NC4CC4)c(Cl)c3)c2cc1C(N)=O [Lenvatinib] (max concentration tested 2500 nM)
percent inhibition of viability [%]
Conditions | 0.25 nM | 2.5 nM | 25 nM | 250 nM | 2500 nM
DERL-7 (IL-2 2.5 ng/mL) [6] | -0.62 | 1.25 | 2.95 | -3.62 | 5.92
IMC-1 (IL-2 20 ng/mL) [3] | -6.27 | -2.01 | -2.37 | 0.43 | 3.18
KAI3 (IL-2 2.5 ng/mL) [2] | -5.44 | 0.76 | 3.58 | 15.2 | 41.1
KHYG-1 (IL-2 2.5 ng/mL) [4] | -6.43 | -1.14 | -3.61 | 2.55 | 13.7
NK-92 (IL-2 2.5 ng/mL) [12] | -9.84 | 0.14 | -0.46 | 17.2 | 37.8
NK-YS (IL-2 2.5 ng/mL) [9] | -8.22 | -3.14 | -1.94 | 6.7 | 25.7
NKL (IL-2 2.5 ng/mL) [1] | -6.25 | -5.72 | 2.51 | 23.8 | 33.6
SNK-6 (IL-2 2.5 ng/mL) [5] | -33.9 | -23.3 | -21.9 | -19.5 | -12.3
YT (IL-2 2.5 ng/mL) [10] | -8.36 | -6.83 | -3.92 | 0.74 | 22.8
[7] | -3.95 | 5.45 | 5.1 | 3.42 | 13.3
[8] | -4.17 | -2.51 | -1.07 | -9.36 | -5.82
[11] | -5.39 | 10.9 | 5.68 | 1.5 | 8.67
[13] | -0.41 | -2.47 | 2.78 | -8.95 | -1.48
[28] | -4.04 | -5.14 | -2.63 | 6.46 | 19.2

Conditions | drug sensitivity score
DERL-7 (IL-2 2.5 ng/mL) [20] | 0
IMC-1 (IL-2 20 ng/mL) [17] | 0
KAI3 (IL-2 2.5 ng/mL) [16] | 3.76
KHYG-1 (IL-2 2.5 ng/mL) [18] | 0.34
NK-92 (IL-2 2.5 ng/mL) [26] | 4.08
NK-YS (IL-2 2.5 ng/mL) [23] | 1.95
NKL (IL-2 2.5 ng/mL) [15] | 4.35
SNK-6 (IL-2 2.5 ng/mL) [19] | 0.89
YT (IL-2 2.5 ng/mL) [24] | 0.88
[14] | 1.26
[21] | 0.01
[22] | 0.89
[25] | 0
[27] | 0

COc1ccccc1S(=O)(=O)Nc1ccc2c(c1)CN(C)C(=O)N2 [PFI-1] (max concentration tested 10000 nM)
percent inhibition of viability [%]
Conditions | 1 nM | 10 nM | 100 nM | 1000 nM | 10000 nM
DERL-7 (IL-2 2.5 ng/mL) [6] | -2.29 | 2.86 | 9.32 | 41.8 | 91.8
IMC-1 (IL-2 20 ng/mL) [3] | -2.65 | -6.11 | -1.36 | 1.44 | 52.3
KAI3 (IL-2 2.5 ng/mL) [2] | -2.2 | 1.8 | -7.46 | 5.35 | 48
KHYG-1 (IL-2 2.5 ng/mL) [4] | -2.18 | -2.43 | -0.21 | 19.9 | 89.2
NK-92 (IL-2 2.5 ng/mL) [12] | -6.34 | 6.35 | -0.51 | -18.3 | 14.6
NK-YS (IL-2 2.5 ng/mL) [9] | -6.14 | -3.35 | 2.77 | 24.8 | 70
NKL (IL-2 2.5 ng/mL) [1] | -16 | -14.6 | -8.15 | 32 | 70.4
SNK-6 (IL-2 2.5 ng/mL) [5] | -3.16 | -6.59 | 7.82 | 7.89 | 48.9
YT (IL-2 2.5 ng/mL) [10] | 1.99 | 0.44 | -0.45 | 5.52 | 53.1
[7] | 1.67 | -1.14 | -0.56 | 0.29 | 39.4
[8] | -9.32 | -3.5 | -1.83 | 9.71 | 50.9
[11] | -7.18 | 7.82 | -0.65 | -5.17 | 29.6
[13] | -2.26 | -5.87 | 0.68 | 4.06 | 32.9
[28] | 1.38 | -2.34 | 0.83 | 10.4 | 45.7

Conditions | drug sensitivity score
DERL-7 (IL-2 2.5 ng/mL) [20] | 9.94
IMC-1 (IL-2 20 ng/mL) [17] | 2.96
KAI3 (IL-2 2.5 ng/mL) [16] | 3.39
KHYG-1 (IL-2 2.5 ng/mL) [18] | 8.09
NK-92 (IL-2 2.5 ng/mL) [26] | 0.06
NK-YS (IL-2 2.5 ng/mL) [23] | 7.15
NKL (IL-2 2.5 ng/mL) [15] | 8.04
SNK-6 (IL-2 2.5 ng/mL) [19] | 3.9
YT (IL-2 2.5 ng/mL) [24] | 3.74
[14] | 4.03
[21] | 1.98
[22] | 4.3
[25] | 0.99
[27] | 2.17

From the supplement of paper PMC5908809
